# Results: US7932284B2, “Indole sulfonamide modulators of progesterone receptors” (Eli Lilly and Company, priority 2006, dated 2011)
# What was measured:
# [1] = biological target: T1, human AR (androgen receptor) (Homo sapiens, UniProt P10275); experiment: AR competition binding assay (HEK293 cell lysate); conditions: 0.36 nM 3H-methyltrienolone, 293-AR lysate
# T1 construct: expressed in transfected cells; host or cells: HEK293
# T1 sequence (P10275 1-920): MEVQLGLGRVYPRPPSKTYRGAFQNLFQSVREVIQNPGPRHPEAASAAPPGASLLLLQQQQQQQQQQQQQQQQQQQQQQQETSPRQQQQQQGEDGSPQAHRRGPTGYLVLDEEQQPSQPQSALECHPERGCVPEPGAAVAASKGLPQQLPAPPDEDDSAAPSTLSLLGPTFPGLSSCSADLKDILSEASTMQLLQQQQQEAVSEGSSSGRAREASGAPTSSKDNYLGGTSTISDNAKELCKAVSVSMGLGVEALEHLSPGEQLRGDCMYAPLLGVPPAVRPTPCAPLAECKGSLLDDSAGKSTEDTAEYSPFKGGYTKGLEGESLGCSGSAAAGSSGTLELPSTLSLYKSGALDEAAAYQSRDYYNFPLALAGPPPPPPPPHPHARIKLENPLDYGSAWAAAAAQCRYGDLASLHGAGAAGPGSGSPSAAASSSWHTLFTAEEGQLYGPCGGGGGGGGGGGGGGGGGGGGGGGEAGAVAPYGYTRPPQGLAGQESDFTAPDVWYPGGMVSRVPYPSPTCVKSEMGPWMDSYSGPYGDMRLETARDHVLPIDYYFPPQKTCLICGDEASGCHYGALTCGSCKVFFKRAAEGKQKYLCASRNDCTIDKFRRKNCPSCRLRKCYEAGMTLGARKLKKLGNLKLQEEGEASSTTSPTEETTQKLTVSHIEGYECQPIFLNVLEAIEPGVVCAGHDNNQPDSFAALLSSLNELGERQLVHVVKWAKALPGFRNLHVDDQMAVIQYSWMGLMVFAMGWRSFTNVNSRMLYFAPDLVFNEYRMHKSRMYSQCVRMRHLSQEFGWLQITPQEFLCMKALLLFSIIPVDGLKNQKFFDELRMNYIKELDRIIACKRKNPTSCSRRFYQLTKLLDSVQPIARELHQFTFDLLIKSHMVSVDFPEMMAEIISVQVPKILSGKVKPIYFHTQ
# Experimental: (§1) Cell lysates from HEK293 cells overexpressing human GR (glucocorticoid receptor), AR (androgen receptor), MR (mineralocorticoid receptor) or PR (progesterone receptor) are used for competition binding assays to determine Ki values for compounds of interest. Briefly, competition binding assays are run in a buffer containing 20 mM HEPES, pH 7.6, 0.2 mM EDTA, 75 mM NaCl, 1.5 mM MgCl2, 20% glycerol, 20 mM sodium molybdate, 0.2 mM DTT, 20 ug/ml aprotinin, and 20 ug/ml leupeptin, using either 0.3 nM ^3H-dexamethasone for GR binding, 0.36 nM ^3H-methyltrienolone for AR binding, 0.25 nM ^3H-aldosterone for MR binding, or 0.29 nM ^3H-methyltrienolone for PR binding, and either 20 ug 293-GR lysate, 22 ug 293-AR lysate, 20 ug 293-MR lysate or 40 ug 293-PR lysate per well. Competing compounds are added at various concentrations in half-log increments. Non-specific binding is determined in the presence of 500 nM dexamethasone for GR binding, 500 nM aldosterone for MR binding, or 500 nM methyltrienolone for AR and PR binding. The binding reaction (140 μl) is incubated overnight at 4° C., then 70 μl of cold charcoal-dextran buffer (containing per 50 ml of assay buffer, 0.75 g of charcoal and 0.25 g of dextran) is added to each reaction. Plates are mixed 8 minutes on an orbital shaker at 4° C. Plates are then centrifuged at 3,000 rpm at 4° C. for 10 minutes. An aliquot of 120 μl of the mixture is transferred to another 96-well plate and 175 μl of Wallac Optiphase “Hisafe 3” scintillation fluid is added to each well. Plates are sealed and shaken vigorously on an orbital shaker. After an incubation of 2 hrs, plates are read in a Wallac Microbeta counter. […] The Kd for ^3H-dexamethasone for GR binding, ^3H-methyltrienolone for AR binding, ^3H-aldosterone for MR binding, or ^3H-methyltrienolone for PR binding, is determined by saturation binding. The IC50 values for compounds are converted to Ki using Cheng-Prusoff equation and the Kd determined by saturation binding assay.
# [2] = biological target: T2, human MR (mineralocorticoid receptor) (Homo sapiens, UniProt P08235); experiment: MR competition binding assay (HEK293 cell lysate); conditions: 0.25 nM 3H-aldosterone, 293-MR lysate
# T2 construct: expressed in transfected cells; host or cells: HEK293
# T2 sequence (P08235 1-984): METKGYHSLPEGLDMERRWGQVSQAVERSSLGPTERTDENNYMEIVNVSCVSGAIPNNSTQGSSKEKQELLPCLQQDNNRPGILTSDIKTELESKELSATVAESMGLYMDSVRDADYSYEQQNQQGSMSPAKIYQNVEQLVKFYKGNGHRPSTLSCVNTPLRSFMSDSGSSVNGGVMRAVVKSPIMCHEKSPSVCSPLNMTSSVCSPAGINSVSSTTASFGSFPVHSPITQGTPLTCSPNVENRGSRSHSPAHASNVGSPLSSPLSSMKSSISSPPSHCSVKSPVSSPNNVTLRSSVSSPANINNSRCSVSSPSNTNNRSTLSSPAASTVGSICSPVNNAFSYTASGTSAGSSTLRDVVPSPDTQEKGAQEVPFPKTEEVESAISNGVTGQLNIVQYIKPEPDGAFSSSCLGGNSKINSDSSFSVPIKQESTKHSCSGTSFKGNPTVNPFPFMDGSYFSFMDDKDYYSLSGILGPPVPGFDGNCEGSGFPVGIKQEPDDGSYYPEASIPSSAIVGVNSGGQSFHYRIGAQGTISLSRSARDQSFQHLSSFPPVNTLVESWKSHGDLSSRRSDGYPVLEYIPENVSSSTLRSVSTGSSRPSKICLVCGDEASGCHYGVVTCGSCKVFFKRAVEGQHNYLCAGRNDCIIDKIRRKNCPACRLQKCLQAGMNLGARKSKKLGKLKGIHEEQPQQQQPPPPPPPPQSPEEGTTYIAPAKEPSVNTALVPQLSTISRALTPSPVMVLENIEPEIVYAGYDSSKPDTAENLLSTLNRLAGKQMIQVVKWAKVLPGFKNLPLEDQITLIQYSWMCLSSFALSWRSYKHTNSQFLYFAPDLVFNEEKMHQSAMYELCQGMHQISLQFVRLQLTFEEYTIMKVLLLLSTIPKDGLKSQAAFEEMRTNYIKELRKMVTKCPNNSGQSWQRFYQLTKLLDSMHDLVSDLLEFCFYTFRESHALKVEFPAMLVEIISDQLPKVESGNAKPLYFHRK
# Experimental: as §1
SMILES,Ki [1] [nM],Ki [2] [nM]
"CC(C)n1cc(-c2ccc3oc(=O)ccc3c2)c2ccc(NS(C)(=O)=O)cc21 [Example 96, N-[1-Isopropyl-3-(2-oxo-2H-chromen-6-yl)-1H-indol-6-yl]-methanesulfonamide]",> 1000,> 1000
"Cc1ccc(-c2cn(C(C)C)c3cc(NS(C)(=O)=O)ccc23)cc1F [Example 84, N-[3-(3-Fluoro-4-methyl-phenyl)-1-isopropyl-1H-indol-6-yl]-methanesulfonamide]",500 to 1000,500 to 1000
"COc1ccc(-c2cn(C(C)C)c3cc(NS(C)(=O)=O)ccc23)cc1C [Example 86, N-[1-Isopropyl-3-(4-methoxy-3-methyl-phenyl)-1H-indol-6-yl]-methanesulfonamide]",> 1000,> 1000
"CC(C)n1cc(-c2ccc(C#N)n2C)c2ccc(NS(C)(=O)=O)cc21 [Example 78, N-[3-(5-Cyano-1-methyl-1H-pyrrol-2-yl)-1-isopropyl-1H-indol-6-yl]-methanesulfonamide]",50 to 100,100 to 500
